For data set [1], the target named is T1, Transient receptor potential cation channel subfamily V member 1 (Homo sapiens, UniProt Q8NER1). Description: Agonist activity at human TRPV1 overexpressed in HEK293 cells incubated for 1 hr by Fluo-4 AM dye based microscopic analysis. It is filed as cell-based.
Data set [2] in a line: Toxicity in Kunming mouse assessed as decrease in core body temperature at 50 mg/kg measured upto hrs. It is filed as organism-based. The following applies: in vivo.
Data set [3] has as its target T1, Transient receptor potential cation channel subfamily V member 1. The data set is described as follows: Binding affinity to human TRPV1 assessed as dissociation constant by SPR analysis.
Data set [4] can be described thus: Toxicity in Kunming mouse assessed as decrease in core body temperature at 50 mg/kg measured after 15 mins. The following applies: in vivo, 0.25 h. It is filed as organism-based.

These results are taken from ChEMBL document CHEMBL5325459, “Design, synthesis, and analgesia evaluation of novel Transient Receptor Potential Vanilloid 1 (TRPV1) agonists modified from Cannabidiol (CBD)” (Bioorg Med Chem, 2023).

T1 sequence (Q8NER1 whole entry): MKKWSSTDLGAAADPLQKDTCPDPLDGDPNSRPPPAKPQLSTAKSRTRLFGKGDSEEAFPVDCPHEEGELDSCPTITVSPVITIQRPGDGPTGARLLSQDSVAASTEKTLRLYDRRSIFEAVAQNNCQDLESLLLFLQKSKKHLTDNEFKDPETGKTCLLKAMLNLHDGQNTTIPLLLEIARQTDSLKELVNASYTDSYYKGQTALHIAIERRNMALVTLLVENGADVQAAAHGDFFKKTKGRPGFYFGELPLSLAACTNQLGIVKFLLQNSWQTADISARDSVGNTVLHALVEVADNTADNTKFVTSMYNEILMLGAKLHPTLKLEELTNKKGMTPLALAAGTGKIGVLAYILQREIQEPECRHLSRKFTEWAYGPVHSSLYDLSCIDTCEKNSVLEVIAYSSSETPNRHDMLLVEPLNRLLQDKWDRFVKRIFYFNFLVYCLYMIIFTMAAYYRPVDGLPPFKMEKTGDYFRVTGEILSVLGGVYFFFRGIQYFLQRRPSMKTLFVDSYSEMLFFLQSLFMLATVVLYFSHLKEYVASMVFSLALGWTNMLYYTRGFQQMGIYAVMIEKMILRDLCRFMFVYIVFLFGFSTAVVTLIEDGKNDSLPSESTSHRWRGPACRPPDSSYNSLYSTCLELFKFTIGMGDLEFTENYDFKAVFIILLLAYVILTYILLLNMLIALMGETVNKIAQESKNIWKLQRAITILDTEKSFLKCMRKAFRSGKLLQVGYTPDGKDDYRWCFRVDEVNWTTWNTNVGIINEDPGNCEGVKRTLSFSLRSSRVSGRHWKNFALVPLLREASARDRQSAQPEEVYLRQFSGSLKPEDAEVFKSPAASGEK

In turn, `CCCCCc1cc(O)c(NS(=O)(=O)c2cccc(C(F)(F)F)c2)c(O)c1` returned an EC50 in data set [1] of 10.4 µM.

In data set [1], `CCCCCc1cc(O)c(NC(=O)Nc2cccc3ncccc23)c(O)c1` showed an EC50 of 40.5 µM.

In data set [1], `CCCCCc1cc(O)c(NS(=O)(=O)c2ccc(-c3ccccc3)cc2)c(O)c1` gave an EC50 of 4.42 µM.

In the case of `CCCCCc1cc(O)c(NS(=O)(=O)c2cccc3cccnc23)c(O)c1`, the EC50 in data set [1] was 36.4 µM.

`CCCCCc1cc(O)c(NC(=O)c2ccc(=O)oc2)c(O)c1` gave an EC50 in data set [1] of 71.2 µM.

For `COc1cc(COC(=O)CCc2cc(O)c(NS(=O)(=O)c3cc(F)cc(F)c3)c(O)c2)ccc1O`, the Activity entry in data set [2] is reported as “Non-Toxic”.

In data set [1], `C=C(C)[C@@H]1CCC(C)=C[C@H]1c1c(O)cc(CCCCC)cc1O` [CANNABIDIOL] had a concentration for a half-maximal effect (EC50) of 38.5 µM. Further, the Activity entry in data set [2] was “Non-Toxic”. In data set [3], the Kd was 110 µM.

`CCCCCc1cc(O)c(NS(=O)(=O)c2cc(F)cc(F)c2)c(O)c1` showed an EC50 in data set [1] of 39.8 µM.

In the case of `COc1ccc(COC(=O)CCc2cc(O)c(NS(=O)(=O)c3cc(F)cc(F)c3)c(O)c2)cc1OC`, in data set [4], the Activity result is reported as “Toxic”.
